Test results from patent US6914045B2, “Glycopeptide antibiotics” (Wyeth Holdings Corporation, priority 2001, dated 2005).
Converted amounts (≈) assume the structure as drawn.

How the values were obtained:
Assay in all cases: in vitro antibacterial evaluation, MIC by broth dilution
Format in all cases: cell-based
Enterococcus sp. = settings: broth dilution, 18 hours at 35° C.
Outline: (§1)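 MIC = lowest antibiotic concentration preventing visible growth; inoculum 5×10^5 CFU/mL; drug range 64-0.06 μg/mL; Muller-Hinton II […]; NCCLS M7-A2 guidance.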

Streptococcus sp. = settings: broth dilution, 18 hours at 35° C.
Outline: as §1

Staphylococcus sp. = settings: broth dilution, 18 hours at 35° C.
Outline: as §1

Escherichia coli = system: Escherichia coli
Outline: as §1

## CC(c1ccccc1)C1NC(=O)CNC(=O)C(CO)NC(=O)C(C(O)C2CNC(=N)N2C2OC(CO)C(O)C(O)C2O)NC(=O)C(C(O)C2CNC(=N)N2)NC(=O)C(Cc2ccc(OC3OC(CO)C(OC4OC5COC(c6ccc(C(C)(C)C)cc6)OC5C(O)C4O)C(O)C3O)cc2)NC1=O (centres unmarked) [Example 147]
Enterococcus sp.; Enterococcus avium (GC 4558)
  MIC Enterococcus avium (GC 4558): 0.5 to 2 µg/mL
Enterococcus sp.; Enterococcus faecalis (ATCC 29212)
  MIC Enterococcus faecalis (ATCC 29212): 0.5 to 2 µg/mL
Enterococcus sp.; Enterococcus faecalis (GC 2242)
  MIC Enterococcus faecalis (GC 2242): 0.5 to 1 µg/mL
Enterococcus sp.; Enterococcus faecalis (GC 2691)
  MIC Enterococcus faecalis (GC 2691): 0.5 µg/mL (≈ 0.347 µM)
Enterococcus sp.; Enterococcus faecalis (GC 3059)
  MIC Enterococcus faecalis (GC 3059): 0.5 µg/mL (≈ 0.347 µM)
Enterococcus sp.; Enterococcus faecalis (GC 4552)
  MIC Enterococcus faecalis (GC 4552): 0.5 to 1 µg/mL
Enterococcus sp.; Enterococcus faecalis (GC 4553)
  MIC Enterococcus faecalis (GC 4553): 0.5 to 1 µg/mL
Enterococcus sp.; Enterococcus faecalis (GC 4554)
  MIC Enterococcus faecalis (GC 4554): 0.5 to 1 µg/mL
Enterococcus sp.; Enterococcus faecalis (GC 6189)
  MIC Enterococcus faecalis (GC 6189): 0.5 µg/mL (≈ 0.347 µM)
Enterococcus sp.; Enterococcus faecium (GC 2243)
  MIC Enterococcus faecium (GC 2243): 1 to 2 µg/mL
Enterococcus sp.; Enterococcus faecium (GC 4556)
  MIC Enterococcus faecium (GC 4556): 2 µg/mL (≈ 1.39 µM)
Enterococcus sp.; Enterococcus faecium (GC 4557)
  MIC Enterococcus faecium (GC 4557): 1 to 2 µg/mL
Enterococcus sp.; strain ATCC 29212
  MIC Enterococcus faecalis (ATCC 29212): 0.5 to 2 µg/mL
Enterococcus sp.; strain GC 2242
  MIC Enterococcus faecalis (GC 2242): 0.5 to 1 µg/mL
Enterococcus sp.; strain GC 2243
  MIC Enterococcus faecium (GC 2243): 1 to 2 µg/mL
Enterococcus sp.; strain GC 2691
  MIC Enterococcus faecalis (GC 2691): 0.5 µg/mL (≈ 0.347 µM)
Enterococcus sp.; strain GC 3059
  MIC Enterococcus faecalis (GC 3059): 0.5 µg/mL (≈ 0.347 µM)
Enterococcus sp.; strain GC 4552
  MIC Enterococcus faecalis (GC 4552): 0.5 to 1 µg/mL
Enterococcus sp.; strain GC 4553
  MIC Enterococcus faecalis (GC 4553): 0.5 to 1 µg/mL
Enterococcus sp.; strain GC 4554
  MIC Enterococcus faecalis (GC 4554): 0.5 to 1 µg/mL
Enterococcus sp.; strain GC 4556
  MIC Enterococcus faecium (GC 4556): 2 µg/mL (≈ 1.39 µM)
Enterococcus sp.; strain GC 4557
  MIC Enterococcus faecium (GC 4557): 1 to 2 µg/mL
Enterococcus sp.; strain GC 4558
  MIC Enterococcus avium (GC 4558): 0.5 to 2 µg/mL
Enterococcus sp.; strain GC 6189
  MIC Enterococcus faecalis (GC 6189): 0.5 µg/mL (≈ 0.347 µM)
Streptococcus sp.; Streptococcus agalactiae (GC 4564)
  MIC Streptococcus agalactiae (GC 4564): <0.12 µg/mL
Streptococcus sp.; Streptococcus pyogenes (GC 4563)
  MIC Streptococcus pyogenes (GC 4563): >0.12 µg/mL
Streptococcus sp.; Streptococcus pyogenes (ID-3187)
  MIC Streptococcus pyogenes (ID-3187): <0.5 µg/mL
Streptococcus sp.; strain GC 4563
  MIC Streptococcus pyogenes (GC 4563): >0.12 µg/mL
Streptococcus sp.; strain GC 4564
  MIC Streptococcus agalactiae (GC 4564): <0.12 µg/mL
Streptococcus sp.; strain ID-3187
  MIC Streptococcus pyogenes (ID-3187): <0.5 µg/mL
Staphylococcus sp.; strain GC 3051
  MIC Staphylococcus aureus (GC 3051): 0.5 µg/mL (≈ 0.347 µM)
Staphylococcus sp.; strain GC 3053
  MIC Staphylococcus aureus (GC 3053): 0.5 µg/mL (≈ 0.347 µM)
Staphylococcus sp.; strain GC 4542
  MIC Staphylococcus aureus (GC 4542): 0.5 to 1 µg/mL
Staphylococcus sp.; strain GC 4543
  MIC Staphylococcus aureus-SMITH (GC 4543): 0.5 to 1 µg/mL
Staphylococcus sp.; strain GC 4544
  MIC Staphylococcus aureus (GC 4544): 0.5 to 1 µg/mL
Staphylococcus sp.; strain GC 4545
  MIC Staphylococcus aureus (GC 4545): 0.5 to 1 µg/mL
Staphylococcus sp.; strain GC 4546
  MIC Staphylococcus haemolyticus (GC 4546): 1 to 2 µg/mL
Staphylococcus sp.; strain GC 4547
  MIC Coagulase Negative Staphylococcus (GC 4547): 1 to 2 µg/mL
Staphylococcus sp.; strain GC 4548
  MIC Coagulase Negative Staphylococcus (GC 4548): <0.5 to 1 µg/mL
Staphylococcus sp.; strain GC 4549
  MIC Coagulase Negative Staphylococcus (GC 4549): <0.5 to 1 µg/mL
Staphylococcus sp.; strain GC 4551
  MIC Coagulase Negative Staphylococcus (GC 4551): 1 µg/mL (≈ 0.695 µM)
Staphylococcus sp.; strain GC 6257
  MIC Coagulase Negative Staphylococcus (GC 6257): 2 µg/mL (≈ 1.39 µM)
Staphylococcus sp.; strain ID-3941
  MIC Coagulase Negative Staphylococcus (ID-3941): 1 µg/mL (≈ 0.695 µM)
Staphylococcus sp.; strain SMITH GC 4543
  MIC Staphylococcus aureus-SMITH (GC 4543): 0.5 to 1 µg/mL
Escherichia coli; strain ATCC 25922, 18 hours at 35° C.
  MIC Escherichia coli (ATCC 25922): 64-64 μg/mL
Escherichia coli; strain GC 4559, 18 hours at 35° C.
  MIC Escherichia coli (GC 4559): 64 µg/mL (≈ 44.5 µM)
Escherichia coli; strain GC 4560, 18 hours at 35° C.
  MIC Escherichia coli (GC 4560): 0.5 to 2 µg/mL
